Series [1] has as its system C8161 human cutaneous melanoma cells. Kind of series: In vivo tumor formation, C8161 cells injected subcutaneously into nude mice. Set-up: species or system mouse. The following applies: 250,000 Morpholino-treated C8161 cells injected, vs control. The procedure:
A microenvironment of human embryonic stem cells (H9 CMTX) was prepared as described above. C8161 human cutaneous melanoma cells were exposed to the H9 CMTX or Matrigel for 3 to 4 days prior to transplantation in a mouse model. Nude immunocompromised mice received an injection of the C8161 cells subcutaneously into the midscapular region (to mimic spontaneous metastatic dissemination found in human cancers). The animals were injected using a 25 or 27-gauge needle with 2.5×10^5 tumor cells/mouse in 0.05 ml RPMI media.
As a corollary to these findings, an orthotopic mouse model was used to examine the effect of Nodal inhibition on melanoma tumor formation. For the experimental tumourigenesis model, 5 week old nude mice (Harlan, Madison, Wis.) were injected subcutaneously with 250,000 C8161 cells, treated with control or anti-Nodal Morpholinos, in 50 μL of complete RPMI. Tumor measurements were taken on days 3, 7, 14 and 17 post-injection, and mice were sacrificed on day 17. For the orthotopic mouse tumor formation studies, statistical significance was determined using the Kruskal-Wallis One Way Analysis of Variance on Ranks, followed by Dunn's method. […]

Another series deals with MDA-MB-231 cells. Kind of series: In vitro proliferation assay (cell count), MDA-MB-231. The series is classed as cell-based, human. The settings on record: MDA-MB-231, relative to MO Control; 4 days after plating 15,000 cells.
A further series concerns C8161 cells. Kind of series: In vitro proliferation assay (cell count), C8161. The series is classed as cell-based, human. The following applies: C8161, relative to MO Control; 4 days after plating 15,000 cells.
The test system of series [2] is MDA-MB-231 breast carcinoma cells. Put plainly: In vivo tumor cell proliferation-to-apoptosis ratio (Ki67 / TUNEL), MDA-MB-231 tumors. The following applies: MDA-MB-231 cells treated prior to injection into mouse. An excerpt:
(A) In vivo tumor formation in a mouse injected with MDA-MB-231 cells pre-exposed for 3 days to either a control matrix (Matrigel) or a matrix conditioned by hESCs (H9 CMTX) (n=10) (B) C81-61 cells, transfected with either an empty vector or a Nodal expression construct (n=5), and (C) MDA-MB-231 cells treated with either MO^Control or MO^Nodal (n=10). […] (D) The ratio of tumor cell proliferation to apoptosis for C8161 and MDA-MB-231 derived tumors, determined by immunohistochemical staining for Ki67 and terminal deoxynucleotidyl transferase biotin-dUTP nick-end labeling (TUNEL). Prior to injection into a mouse, C8161 and MDA-MB-231 cells were cultured for 3 days on control or hESC conditioned (H9 CMTX) matrices, or treated with MO^Nodal to knock down Nodal expression. […] (E) Immunohistochemical analysis of Ki67 expression (red/brown) and TUNEL staining in orthotopic melanoma (C8161) and breast carcinoma (MDA-MB-231) tumors. […] Proliferation is indicated by Ki67 staining and apoptotic nuclei were detected with confocal microscopy as red staining localized to the nuclei of apoptotic C8161 or MDA-MB-231 cells. […]
In order to establish a mechanism by which exposure to the hESC microenvironment abrogates tumorigenicity, the effects of this treatment on the in vivo tumor cell proliferation-to-apoptosis ratio were analyzed. […]

For series [3] the test system is unchanged. Kind of series: In vivo tumor formation, MDA-MB-231 cells injected into the mammary fat pad. The settings on record: 500,000 Morpholino-treated MDA-MB-231 cells injected, vs control. Set-up: species or system mouse. An excerpt:
The effects of the hESC microenvironment on the in vivo tumorigenicity of melanoma and breast carcinoma cells were examined using orthotopic mouse models. […] In order to further substantiate the role of Nodal in tumorigenicity, and to illuminate a potential mechanism for the tumor-suppressive properties of the hESC microenvironment, previously shown to diminish Nodal expression (FIG. 9), orthotopic mouse models were utilized to examine the effects of: (a) Ectopic Nodal expression on the tumorigenic potential of C81-61 cells (isogenetically matched non-tumorigenic variants of the metastatic C8161 melanoma cell line); and (b) Nodal inhibition on MDA-MB-231 breast carcinoma tumorigenicity. The control C81-61 melanoma cell line was unable to form palpable tumors when 500,000 cells were injected, and using gross observation and histology 5.5 weeks after inoculation, these tumor cells could not be detected at the site of injection. In contrast, 100% of C81-61 cells transfected with a Nodal expression vector formed palpable tumors within 3.5 weeks of injection (FIG. 13B).
5 week old mice were injected subcutaneously with 250,000 C8161 or 500,000 C81-61 human cutaneous melanoma cells in 50 μL of complete RPMI; or 500,000 MDA-MB-231 cells in 50 μL of complete RPMI were injected into the mammary fat pad of 8 week old mice. When tumors became palpable measurements were taken twice per week.

Take “MO^Nodal: antisense Morpholino to Nodal, 5′-AAGCAGCACCTCCAGCCCTTATATC-3′ (SEQ ID NO: 20) (all phosphorodiamidate morpholino (PMO); further chemistry not fully specified)”: the “diminution of tumor incidence” value in series [1] is 30%. Besides, the tumorigenicity result in series [1] and in series [3] was “significant reduction” in each case. Further, the “in vitro cell proliferation” value with MDA-MB-231 cells and in the series with C8161 cells was “reduced proliferation” each time. Moreover, in series [2], the “ratio of proliferation to apoptosis” value was “decreased”.

The values are drawn from patent US20100105610A1, “Methods of Inhibiting Tumor Cell Aggressiveness Using the Microenvironment of Human Embryonic Stem Cells” (CHILDREN'S MEMORIAL HOSPITAL, priority 2006, published 2010).
